Article PMC9313812, “The Pseudo‐Natural Product Rhonin Targets RHOGDI” (Angewandte Chemie (International Ed. in English), 2022)

Legend:
[1] = tested on: GTP-bound RHO GTPases (RHOA, RAC1, CDC42); assay: G-LISA activation assays; assay type: cell-based; details: 10 μM, 24 h
Procedure: 40,000 x g for 30 min at 4°C. Supernatants were collected as cytoplasmic fraction and pellets were resuspended into a homogenization buffer (0.25 M sucrose, 20 mM Tris/HCl pH 7.4, 25 mM KCl, 5 mM MgCl2) and further centrifuged (2 h at 100,000 x g) using an iodixanol (OptiPrep, Axis Shield) gradient solution. Obtained fractions were used for immunoblotting.
NIH/3T3 cells were seeded in a 96 plate (10,000 cell per well/ plate name: Essen Bioscience NO 4379). NIH/3T3 cells were grown till 80% confluence and then serum starved (0 % FCS) for 24 h. Scratch was performed using the Incucyte Woundmaker Tool. Next, 10 µM Rhonin was added to the wells. As controls, 2 µg/ml RHO inhibitor I (cat#CT04/ cytoskeleton) and 0.5% DMSO were used. Cell migration was monitored using IncuCyte ZOOM for a period of 48 h. The images were analyzed by the Incucyte Scratch Wound Analysis Software.
G-LISA activation assays for RHOA, RAC1 and CDC42 […]
GTPase primary antibody (RAC1, CDC42 or RHOA) was added and the tubes and were incubated for 45 min at room temperature. […] Absorption was detected at 490 nm using a plate reader (Tecan Sparks).
Aqueous solubility of compounds was assessed by determination of the kinetic solubility of a test compound in aqueous buffer compared to a solution in organic solvent (acetonitrile). […]

SMO = target: T1, SMO (Mus musculus, UniProt P56726); assay: SMO binding assay (BODIPY-cyclopamine displacement); assay type: cell-based; details: HEK293T cells expressing SMO, 5 nM BODIPY-cyclopamine
T1 construct: expressed in transfected cells; host or cells: HEK293T
T1 sequence (P56726 33-793): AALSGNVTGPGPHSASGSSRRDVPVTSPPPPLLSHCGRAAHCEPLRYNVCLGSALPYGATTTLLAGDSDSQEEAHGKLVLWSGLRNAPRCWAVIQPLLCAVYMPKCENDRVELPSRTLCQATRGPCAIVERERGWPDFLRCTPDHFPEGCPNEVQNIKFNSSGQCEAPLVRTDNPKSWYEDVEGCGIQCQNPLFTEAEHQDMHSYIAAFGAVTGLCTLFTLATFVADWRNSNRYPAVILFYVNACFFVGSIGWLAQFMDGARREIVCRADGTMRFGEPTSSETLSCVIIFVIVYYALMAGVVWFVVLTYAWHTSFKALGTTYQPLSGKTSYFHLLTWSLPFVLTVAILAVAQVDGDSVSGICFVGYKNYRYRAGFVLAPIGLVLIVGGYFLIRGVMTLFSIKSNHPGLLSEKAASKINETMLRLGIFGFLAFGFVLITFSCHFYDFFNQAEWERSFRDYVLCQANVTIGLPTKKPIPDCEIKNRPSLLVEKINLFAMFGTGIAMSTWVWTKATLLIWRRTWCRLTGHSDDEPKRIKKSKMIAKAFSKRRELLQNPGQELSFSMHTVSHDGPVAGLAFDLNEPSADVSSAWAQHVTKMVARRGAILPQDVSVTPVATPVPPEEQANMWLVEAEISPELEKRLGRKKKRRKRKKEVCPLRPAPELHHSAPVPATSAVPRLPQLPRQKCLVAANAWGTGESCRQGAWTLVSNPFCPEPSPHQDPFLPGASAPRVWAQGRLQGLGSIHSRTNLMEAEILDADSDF
Procedure: Supplementary Figure S2. […] HEK293T cells […]
ectopically expressing SMO were treated with different concentrations of 7a or Vismodegib and DMSO as controls in the presence of BODIPY-cyclopamine (5 nM) for 5 h. The graph […]
activated cell sorting analysis. Data are mean values of three independent experiments (n=3) ± […]
using a three-fold dilution series starting from a concentration of 30 μM. Half-maximal inhibitory concentrations (IC50) were calculated using the Quattro software suite (Quattro Research, Planegg, Germany) or GraphPad Prism 7 (GraphPad, USA).
The effect of test compounds on the viability of C3H/10T1/2 cells was determined by CellTiter-Glo Luminescence cell viability assay (Promega). Cells were treated as described for the osteogenesis assay prior to addition of the CellTiter-Glo® reagent according to manufacturer’s protocol. Compounds causing at least a 50% reduction in the osteogenesis assay and retaining cell viability of at least 80% were considered as hits. Dose-response analyses were performed for all hit compounds using a three-fold dilution series starting from a concentration of 30 μM. Half-maximal inhibitory concentrations (IC50) were calculated using the Quattro software suite (Quattro Research GmbH).
GLI-dependent reporter gene assay
Shh-LIGHT2 cells were seeded (2.5×10^4 per well) in 96-well plates. After incubation for 16 h, medium was replaced by low serum-containing medium (0.5% FCS) supplemented with 1.5 μM purmorphamine and various concentrations of the compounds or DMSO as a control and cells were incubated for 48 h. Firefly and Renilla luciferase activities were determined by means of the Dual-Luciferase® Reporter Assay System (Promega) according to the manufacturer’s protocol and luminescence was measured using the Spark plate reader (Tecan, […]
HEK293T cells were seeded (1.5×10^4 per well) on poly-D-lysine-coated coverslips placed in a 24-well plate. 24 h later cells were transfected with the SMO-expressing plasmid (pGEN-mSMO) using FuGENE HD (Promega) according to the manufacturer’s protocol. […]

Row | Displacement of BODIPY-cyclopamine from SMO (in words) (SMO; listed as 7 a) | SMILES | Levels of GTP-bound RHO GTPases (in words) [1] | Displacement of BODIPY-cyclopamine from SMO (in words) (SMO)
1 | – | COC(=O)C1(C(CC(=O)c2cccnc2)c2ccccc2)N=C(c2ccc(Br)cc2)C2C(=O)N(C)C(=O)C21 (stereo not shown) [7l] | increased | partial decrease
2 | did not displace | COC(=O)C1(C(CC(=O)c2ccccc2)c2ccccc2)N=C(c2ccc(Br)cc2)C2C(=O)N(C)C(=O)C21 (stereo not shown) [7a] | – | does not displace
